Experimental data taken from PubChem BioAssay AID1963964 (Molecular Pharmacology Branch, DTP, NCI, 2024).

System: 997726-040-R-J2-PDC tumor spheroids, viability
Experiment: Anticancer human tumor 997726-040-R-J2-PDC patient-derived squamous cell lung carcinoma cell line growth inhibition [PI3K]
Settings: spheroids with HUVEC and MSC; for viability, T/C: stronger effect = lower value
Method in brief: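 Complex 3D spheroids (cancer cells + endothelial HUVEC + mesenchymal stem cells); drug pairs of targeted agent x inavolisib/alpelisib/duvelisib/copanlisib; half-log series from ~Cmax, max 10 microM if Cmax unknown; endpoint viability.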

[1] = curve of first compound, second compound 0.0316 µM
[2] = curve of first compound, second compound 0.1 µM
[3] = curve of first compound, second compound 0.316 µM
[4] = curve of first compound, second compound 1 µM
[5] = second compound 0.0316 µM, first compound 0.0316 µM
[6] = second compound 0.0316 µM, first compound 0.1 µM
[7] = second compound 0.1 µM, first compound 0.0316 µM
[8] = second compound 0.1 µM, first compound 0.1 µM
[9] = second compound 0.316 µM, first compound 0.0316 µM
[10] = second compound 0.316 µM, first compound 0.1 µM
[11] = second compound 1 µM, first compound 0.0316 µM
[12] = second compound 1 µM, first compound 0.1 µM
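Note: spheroids exposed to compounds for seven days before readout.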

## CC(=O)c1c(C)c2cnc(Nc3ccc(N4CCNCC4)cn3)nc2n(C2CCCC2)c1=O
Compound 0.000316 µM
  viability, T/C: 94.7% [middle of 4 runs]
Compound 0.001 µM
  viability, T/C: 92.8% [middle of 4 runs]
Compound 0.00316 µM
  viability, T/C: 99.1% [middle of 4 runs]
Compound 0.01 µM
  viability, T/C: 91.3% [middle of 4 runs]
Compound 0.0316 µM
  viability, T/C: 82.2% [middle of 4 runs]
Compound 0.1 µM
  viability, T/C: 62.8% [middle of 4 runs]
Curve of compound
  IC50: > 100 nM

## Cc1nc(NC(=O)N2CCCC2C(N)=O)sc1-c1ccnc(C(C)(C)C(F)(F)F)c1 (stereo not drawn)
Compound 0.0316 µM
  viability, T/C: 91.9% [middle of 8 runs]
Compound 0.1 µM
  viability, T/C: 77% [middle of 8 runs]
Compound 0.316 µM
  viability, T/C: 57.5% [middle of 8 runs]
Compound 1 µM
  viability, T/C: 42.9% [middle of 8 runs]
Compound 3.16 µM
  viability, T/C: 30.8% [middle of 8 runs]
Compound 10 µM
  viability, T/C: 16.2% [middle of 8 runs]
Compound alone, run of 06/12/2023
  IC50: 599 nM [middle of 8 runs]

## CCCS(=O)(=O)Nc1ccc(F)c(C(=O)c2c[nH]c3ncc(-c4ccc(Cl)cc4)cc23)c1F + CC(Nc1ccc2c(c1)OCCn1cc(N3C(=O)OCC3C(F)F)nc1-2)C(N)=O
Curve of first compound, second compound 0.00316 µM
  IC50: 6540 nM
Curve of first compound, second compound 0.01 µM
  IC50: 6210 nM
[1]
  IC50: 4990 nM
[2]
  IC50: 3460 nM
[3]
  IC50: < 31.6 nM
[4]
  IC50: < 31.6 nM
Second compound 0.00316 µM, first compound 0.0316 µM
  viability, T/C: 83.8%
Second compound 0.00316 µM, first compound 0.1 µM
  viability, T/C: 101%
Second compound 0.00316 µM, first compound 0.316 µM
  viability, T/C: 98.2%
Second compound 0.00316 µM, first compound 1 µM
  viability, T/C: 108%
Second compound 0.00316 µM, first compound 3.16 µM
  viability, T/C: 107%
Second compound 0.00316 µM, first compound 10 µM
  viability, T/C: 20.9%
Second compound 0.01 µM, first compound 0.0316 µM
  viability, T/C: 76.5%
Second compound 0.01 µM, first compound 0.1 µM
  viability, T/C: 94.7%
Second compound 0.01 µM, first compound 0.316 µM
  viability, T/C: 90.7%
Second compound 0.01 µM, first compound 1 µM
  viability, T/C: 90.3%
Second compound 0.01 µM, first compound 3.16 µM
  viability, T/C: 97.1%
Second compound 0.01 µM, first compound 10 µM
  viability, T/C: 21.8%
[5]
  viability, T/C: 65.1%
[6]
  viability, T/C: 64.1%
Second compound 0.0316 µM, first compound 0.316 µM
  viability, T/C: 72.4%
Second compound 0.0316 µM, first compound 1 µM
  viability, T/C: 72%
Second compound 0.0316 µM, first compound 3.16 µM
  viability, T/C: 70.3%
Second compound 0.0316 µM, first compound 10 µM
  viability, T/C: 21.8%
[7]
  viability, T/C: 54.6%
[8]
  viability, T/C: 53.1%
Second compound 0.1 µM, first compound 0.316 µM
  viability, T/C: 49.4%
Second compound 0.1 µM, first compound 1 µM
  viability, T/C: 51.9%
Second compound 0.1 µM, first compound 3.16 µM
  viability, T/C: 52.9%
Second compound 0.1 µM, first compound 10 µM
  viability, T/C: 22.6%
[9]
  viability, T/C: 35.6%
[10]
  viability, T/C: 36.8%
Second compound 0.316 µM, first compound 0.316 µM
  viability, T/C: 40.1%
Second compound 0.316 µM, first compound 1 µM
  viability, T/C: 43.6%
Second compound 0.316 µM, first compound 3.16 µM
  viability, T/C: 39.8%
Second compound 0.316 µM, first compound 10 µM
  viability, T/C: 17.3%
[11]
  viability, T/C: 35.6%
[12]
  viability, T/C: 28.7%
Second compound 1 µM, first compound 0.316 µM
  viability, T/C: 29.8%
Second compound 1 µM, first compound 1 µM
  viability, T/C: 32.5%
Second compound 1 µM, first compound 3.16 µM
  viability, T/C: 30.9%
Second compound 1 µM, first compound 10 µM
  viability, T/C: 16.1%

## Cn1ncnc1[C@H]1c2n[nH]c(=O)c3cc(F)cc(c23)N[C@@H]1c1ccc(F)cc1 + CC(Nc1ncnc2nc[nH]c12)c1cc2cccc(Cl)c2c(=O)n1-c1ccccc1
[1]
  IC50: > 100 nM
[2]
  IC50: > 100 nM
[3]
  IC50: > 100 nM
[4]
  IC50: > 100 nM
Curve of first compound, second compound 3.16 µM
  IC50: > 100 nM
Curve of first compound, second compound 10 µM
  IC50: 80.4 nM
Second compound 0.0316 µM, first compound 0.000316 µM
  viability, T/C: 101%
Second compound 0.0316 µM, first compound 0.001 µM
  viability, T/C: 99.9%
Second compound 0.0316 µM, first compound 0.00316 µM
  viability, T/C: 102%
Second compound 0.0316 µM, first compound 0.01 µM
  viability, T/C: 112%
[5]
  viability, T/C: 99.7%
[6]
  viability, T/C: 96.8%
Second compound 0.1 µM, first compound 0.000316 µM
  viability, T/C: 96.5%
Second compound 0.1 µM, first compound 0.001 µM
  viability, T/C: 99.7%
Second compound 0.1 µM, first compound 0.00316 µM
  viability, T/C: 94.4%
Second compound 0.1 µM, first compound 0.01 µM
  viability, T/C: 102%
[7]
  viability, T/C: 98.4%
[8]
  viability, T/C: 97.1%
Second compound 0.316 µM, first compound 0.000316 µM
  viability, T/C: 93.5%
Second compound 0.316 µM, first compound 0.001 µM
  viability, T/C: 99.4%
Second compound 0.316 µM, first compound 0.00316 µM
  viability, T/C: 98%
Second compound 0.316 µM, first compound 0.01 µM
  viability, T/C: 101%
[9]
  viability, T/C: 97.6%
[10]
  viability, T/C: 99.3%
Second compound 1 µM, first compound 0.000316 µM
  viability, T/C: 100%
Second compound 1 µM, first compound 0.001 µM
  viability, T/C: 95.3%
Second compound 1 µM, first compound 0.00316 µM
  viability, T/C: 90.4%
Second compound 1 µM, first compound 0.01 µM
  viability, T/C: 86.2%
[11]
  viability, T/C: 86.2%
[12]
  viability, T/C: 89.1%
Second compound 3.16 µM, first compound 0.000316 µM
  viability, T/C: 70.3%
Second compound 3.16 µM, first compound 0.001 µM
  viability, T/C: 77.9%
Second compound 3.16 µM, first compound 0.00316 µM
  viability, T/C: 69.7%
Second compound 3.16 µM, first compound 0.01 µM
  viability, T/C: 65.5%
Second compound 3.16 µM, first compound 0.0316 µM
  viability, T/C: 89.9%
Second compound 3.16 µM, first compound 0.1 µM
  viability, T/C: 67.2%
Second compound 10 µM, first compound 0.000316 µM
  viability, T/C: 54.8%
Second compound 10 µM, first compound 0.001 µM
  viability, T/C: 61.6%
Second compound 10 µM, first compound 0.00316 µM
  viability, T/C: 55.3%
Second compound 10 µM, first compound 0.01 µM
  viability, T/C: 54%
Second compound 10 µM, first compound 0.0316 µM
  viability, T/C: 55%
Second compound 10 µM, first compound 0.1 µM
  viability, T/C: 48.9%
